In patent publication US9624188B2, “IDO inhibitors” (BRISTOL-MYERS SQUIBB COMPANY, priority 2013, dated 2017):

target: Human IDO1 (Homo sapiens (Human), UniProt P14902); experiment: IDO Kynurenine Assay with Human IDO1/HEK293 Cells; assay type: cell-based; conditions: 20 hours incubation, kynurenine detected with Ehrlich reagent, absorbance at 490 nm, read-out: HEK Human IDO-1 IC50
Procedure: IDO Kynurenine Assay with Human IDO1/HEK293 Cells
Human IDO1/HEK293 cells were seeded at 10,000 cells per 50 uL per well with RPMI/phenol red free media contains 10% FBS in a 384-well black wall clear bottom tissue culture plate (Matrix Technologies LLC) 125 nL of certain concentration of compound was then added to each well using ECHO liquid handling systems. The cells were incubated for 20 hours in 37° C. incubator with 5% CO2.
The compound treatments were stopped by adding Trichloroacetic Acid (Sigma-Aldrich) to a final concentration at 0.2%. The cell plate was further incubated at 50° C. for 30 minute. The equal volume supernatant (20 uL) and 0.2% (w/v) Ehrlich reagent (4-dimethylaminobenzaldehyde, Sigma-Aldrich) in glacial acetic acid were mixed in a new clear bottom 384-well plate. This plate was then incubated at room temperature for 30 minute. The absorbance at 490 nm was measured on Envision plate reader.
Compound IC50 values were calculated using the counts of 500 nM of a reference standard treatment as one hundred percent inhibition, and counts of no compound but DMSO treatment as zero percent inhibition.

Sequence of Human IDO1 (P14902 whole entry): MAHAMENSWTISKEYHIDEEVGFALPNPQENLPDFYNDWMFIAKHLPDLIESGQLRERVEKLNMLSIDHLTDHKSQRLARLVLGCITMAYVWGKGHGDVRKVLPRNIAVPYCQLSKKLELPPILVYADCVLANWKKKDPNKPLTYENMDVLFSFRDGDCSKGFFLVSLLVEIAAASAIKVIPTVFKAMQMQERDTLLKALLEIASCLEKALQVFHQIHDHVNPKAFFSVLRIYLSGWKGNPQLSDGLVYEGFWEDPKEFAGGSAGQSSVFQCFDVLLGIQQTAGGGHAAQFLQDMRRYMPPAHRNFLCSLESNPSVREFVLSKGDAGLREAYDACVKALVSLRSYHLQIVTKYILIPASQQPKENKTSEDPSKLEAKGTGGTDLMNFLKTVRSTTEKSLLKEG

SMILES	IC50
Cc1ccc(NC(=O)Nc2cc(C3(CC(=O)O)COC3)ccc2N(CC(C)C)CC(C)C)cc1 [Example 2, 2-(3-(4-(diisobutylamino)-3-(3-(p-tolyl)ureido)phenyl)oxetan-3-yl)acetic acid]	205 nM
CC(C)CN(CC(C)C)c1ccc([C@H](C)CC(=O)O)cc1NC(=O)Nc1cncnc1 [Example 37, (R)-3-(4-(diisobutylamino)-3-(3-(pyrimidin-5-yl)ureido)phenyl)butanoic acid]	11 nM
CC(C)CN(CC(C)C)c1ccc([C@@H](C)CC(=O)O)cc1NC(=O)Nc1cncnc1 [Example 38, (S)-3-(4-(diisobutylamino)-3-(3-(pyrimidin-5-yl)ureido)phenyl)butanoic acid]	29 nM
Cc1ncc(NC(=O)Nc2cc([C@@H](C)CC(=O)O)ccc2N(CC(C)C)CC(C)C)cn1 [Example 39, (S)-3-(4-(diisobutylamino)-3-(3-(2-methylpyrimidin-5-yl)ureido)phenyl)butanoic acid]	169 nM
Cc1ncc(NC(=O)Nc2cc([C@H](C)CC(=O)O)ccc2N(CC(C)C)CC(C)C)cn1 [Example 40, (R)-3-(4-(diisobutylamino)-3-(3-(2-methylpyrimidin-5-yl)ureido)phenyl)butanoic acid]	22 nM
Cc1ccc(NC(=O)Nc2cc([C@@H](C)CC(=O)O)ccc2N(CC(C)C)CC(C)C)cc1 [Example 43, (S)-3-(4-(diisobutylamino)-3-(3-(p-tolyl)ureido)phenyl)butanoic acid]	17 nM
Cc1cc(NC(=O)Nc2cc([C@@H](C)CC(=O)O)ccc2N(CC(C)C)CC(C)C)no1 [Example 44, (S)-3-(4-(diisobutylamino)-3-(3-(5-methylisoxazol-3-yl)ureido)phenyl)butanoic acid]	87 nM

These reach a lower IC50. Values come first.

IC50	SMILES
5 nM	CC(C)CN(CC(C)C)c1ccc([C@H](C)CC(=O)O)cc1NC(=O)Cc1ccc(C#N)cc1 [Example 45, (R)-3-(3-(2-(4-cyanophenyl)acetamido)-4-(diisobutylamino)phenyl)butanoic acid]
3 nM	Cc1cc(NC(=O)Nc2cc(C(C)CC(=O)O)ccc2N(CC(C)C)CC(C)C)on1 (racemic) [Example 13, 3-(4-(diisobutylamino)-3-(3-(3-methylisoxazol-5-yl)ureido)phenyl)butanoic acid]
1 nM	Cc1ccc(NC(=O)Nc2cc(C(C)CC(=O)O)ccc2N(CC(C)C)C2CCCCC2)cc1 (racemic) [Example 49, 3-(4-(cyclohexyl(isobutyl)amino)-3-(3-(p-tolyl)ureido)phenyl)butanoic acid]
0.7 nM	CC(C)CN(CC(C)C)c1ccc(C(CC(=O)O)C(F)(F)F)cc1NC(=O)Nc1ccc(F)cc1F (centres unmarked) [Example 30, 3-(3-(3-(2,4-difluorophenyl)ureido)-4-(diisobutylamino)phenyl)-4,4,4-trifluorobutanoic acid]
